What was measured:
[1] = Stability in acidic and basic aqueous media (proton NMR); assay type: physicochemical; details: for stability in aqueous solution: pH 1.5 to 9.0
Experimental: The stability of 2,2′-dithio-bis-ethane sulfonate at room temperature was determined at pH ranges of 1.5 to 9.0.
The following experiment was performed to determine the stability of 2,2′-dithio-bis-ethane sulfonate in acidic and basic aqueous media. In a typical experiment, 50 mg of 2,2′-dithio-bis-ethane sulfonate (as produced by using the above described method) was dissolved in one ml of water and the pH was adjusted to 1.5, 2.0, 3.0, 4.0, 5.0 and 6.0 by adding 1 N hydrochloric acid in water or the pH was adjusted to 8.0 and 9.0 by adding 1 N sodium hydroxide in water. The reaction mixture was stirred for 24 hours at room temperature, the water was removed at reduced pressure, dissolved in spectral grade D2O, and the proton NMR spectrum was recorded.
The stability of 2,2′-dithio-bis-ethane sulfonate at pH 1.5 was further studied by heating the reaction mixture to 100 degrees Celsius for 10 minutes.

mice = details: mouse, in vivo, iv
dogs = details: dog, in vivo, iv
humans = details: human, in vivo
[2] = cited from earlier work

SMILES	proton NMR spectrum after stirring in aqueous solution ([1]; 50 mg in one ml water, pH 1.5, 2.0, 3.0, 4.0, 5.0, 6.0, 8.0 and 9.0, 24 hours, room temperature)	proton NMR spectrum after heating ([1]; pH 1.5, 100 degrees Celsius for 10 minutes)	stability in aqueous solution ([1]; room temperature, listed as 2,2′-Dithio-bis-ethane sulfonate)	stability in aqueous solution ([1]; room temperature, listed as 2,2′-dithio-bis-ethane sulfonate)	dose administered intravenously with no adverse effects (mice) [mg/kg]	dose administered intravenously with no adverse effects (dogs) [mg/kg]	dose administered with no adverse effects (humans)	accepted oral LD50 [2] [mg/kg]
O=S(=O)([O-])CCSSCCS(=O)(=O)[O-].[Na+].[Na+] [Dimesna, disodium 2,2′-dithiobis ethane sulfonate]	no additional peaks were observed	No change in the proton spectrum	very stable	stable	> 3750	> 3750	exceeding 25 g/m^2	
[Cl-].[Na+] [common table salt]								3750
